How the values were obtained:
Experiment in all cases: Test B pre-/postemergence plant response
Format in all cases: in vivo
[1] = tested on: bermudagrass (Cynodon dactylon); conditions: for Bermudagrass plant response rating (0 to 100 scale): 0 is no effect, 13 to 15 days
Outline: (§1)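 Seeds were sown in loam soil/sand blend and treated preemergence with compound in non-phytotoxic solvent mixture containing surfactant; postemergence sprays, same formulation, went onto plants 2 to 18 cm (1- to 4-leaf stage) in peat-based planting medium. Greenhouse 13 to 15 days, then visual rating versus untreated controls, 0 (no effect) to 100 (complete control).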

[2] = tested on: blackgrass (Alopecurus myosuroides); conditions: for Blackgrass plant response rating (0 to 100 scale): 0 is no effect, 13 to 15 days
Outline: as §1

[3] = tested on: Italian ryegrass (Lolium multiflorum); conditions: for Ryegrass, Italian plant response rating (0 to 100 scale): 0 is no effect, 13 to 15 days
Outline: as §1

[4] = tested on: woolly cupgrass (Eriochloa villosa); conditions: for Cupgrass, Woolly plant response rating (0 to 100 scale): 0 is no effect, 13 to 15 days
Outline: as §1

kochia (Kochia scoparia) = conditions: for Kochia plant response rating (0 to 100 scale): 0 is no effect, 13 to 15 days
Outline: as §1

[5] = tested on: Surinam grass (Brachiaria decumbens); conditions: for Surinam Grass plant response rating (0 to 100 scale): 0 is no effect, 13 to 15 days
Outline: as §1

wild oat (Avena fatua) = conditions: for Oat, Wild plant response rating (0 to 100 scale): 0 is no effect, 13 to 15 days
Outline: as §1

[6] = tested on: ragweed (common ragweed, Ambrosia elatior); conditions: for Ragweed plant response rating (0 to 100 scale): 0 is no effect, 13 to 15 days
Outline: as §1

[7] = tested on: large crabgrass (Digitaria sanguinalis); conditions: for Crabgrass, Large plant response rating (0 to 100 scale): 0 is no effect, 13 to 15 days
Outline: as §1

[8] = tested on: morningglory (Ipomoea coccinea); conditions: for Morningglory plant response rating (0 to 100 scale): 0 is no effect, 13 to 15 days
Outline: as §1

[9] = tested on: cocklebur (Xanthium strumarium); conditions: for Cocklebur plant response rating (0 to 100 scale): 0 is no effect, 13 to 15 days
Outline: as §1

[10] = tested on: downy bromegrass (Bromus tectorum); conditions: for Bromegrass, Downy plant response rating (0 to 100 scale): 0 is no effect, 13 to 15 days
Outline: as §1

[11] = tested on: wheat (Triticum aestivum); conditions: for Wheat plant response rating (0 to 100 scale): 0 is no effect, 13 to 15 days
Outline: as §1

[12] = 31 g ai/ha, postemergence, scale 0 to 100, 0 is no effect, 100 is complete control
[13] = 62 g ai/ha, postemergence, 100 is complete control
[14] = 250 g ai/ha, Preemergence, 0 to 100 scale
[15] = Postemergence, 125 g ai/ha, visual rating after 13 to 15 days, scale 0 (no effect) to 100 (complete control)
[16] = Postemergence, 250 g ai/ha, scale 0 to 100 (0 no effect, 100 complete control)
[17] = Preemergence, 31 g ai/ha, scale 0 to 100 (0 no effect, 100 complete control)
[18] = Preemergence, 62 g ai/ha, scale 0 to 100 (0 no effect, 100 complete control)
[19] = Preemergence, 125 g ai/ha, scale 0 to 100, 0 no effect, 100 complete control

CCCCc1ncc(C(=O)C2=C(O)CCCC2=O)c(=O)n1-c1ccc(C)cc1 [Compound 67]
Plant response rating, Bermudagrass [1, 12]: 35 | Bermudagrass plant response rating (0 to 100 scale) [1, 13]: 70 | Plant response rating, Bermudagrass [1, 14]: 100 | Plant response rating, Bermudagrass [1, 15]: 70 | Plant response rating, Bermudagrass [1, 16]: 85 | Plant response rating, Bermudagrass [1, 17]: 45 | Plant response rating, Bermudagrass [1, 18]: 90 | Plant response rating, Bermudagrass [1, 19]: 95 | Plant response rating, Blackgrass [2, 12]: 0 | Blackgrass plant response rating (0 to 100 scale) [2, 13]: 0 | Plant response rating, Blackgrass [2, 14]: 5 | Plant response rating, Blackgrass [2, 15]: 5 | Plant response rating, Blackgrass [2, 16]: 10 | Plant response rating, Blackgrass [2, 17]: 0 | Plant response rating, Blackgrass [2, 18]: 0 | Plant response rating, Blackgrass [2, 19]: 0 | Plant response rating, Ryegrass, Italian [3, 12]: 0 | Ryegrass, Italian plant response rating (0 to 100 scale) [3, 13]: 5 | Plant response rating, Ryegrass, Italian [3, 15]: 5 | Plant response rating, Ryegrass, Italian [3, 16]: 5 | Plant response rating, Ryegrass, Italian [3, 17]: 0 | Plant response rating, Ryegrass, Italian [3, 18]: 0 | Plant response rating, Ryegrass, Italian [3, 19]: 0 | Plant response rating, Cupgrass, Woolly [4, 12]: 60 | Cupgrass, Woolly plant response rating (0 to 100 scale) [4, 13]: 70 | Plant response rating, Cupgrass, Woolly [4, 14]: 10 | Plant response rating, Cupgrass, Woolly [4, 15]: 70 | Plant response rating, Cupgrass, Woolly [4, 16]: 75 | Plant response rating, Cupgrass, Woolly [4, 17]: 0 | Plant response rating, Cupgrass, Woolly [4, 18]: 0 | Plant response rating, Cupgrass, Woolly [4, 19]: 0 | Plant response rating, Kochia (kochia (Kochia scoparia); [12]): 75 | Kochia plant response rating (0 to 100 scale) (kochia (Kochia scoparia); [13]): 80 | Plant response rating, Kochia (kochia (Kochia scoparia); [14]): 85 | Plant response rating, Kochia (kochia (Kochia scoparia); [15]): 85 | Plant response rating, Kochia (kochia (Kochia scoparia); [16]): 85 | Plant response rating, Kochia (kochia (Kochia scoparia); [17]): 70 | Plant response rating, Kochia (kochia (Kochia scoparia); [18]): 70 | Plant response rating, Kochia (kochia (Kochia scoparia); [19]): 80 | Plant response rating, Surinam Grass [5, 12]: 10 | Surinam Grass plant response rating (0 to 100 scale) [5, 13]: 20 | Plant response rating, Surinam Grass [5, 15]: 20 | Plant response rating, Surinam Grass [5, 16]: 25 | Plant response rating, Surinam Grass [5, 17]: 0 | Plant response rating, Surinam Grass [5, 18]: 10 | Plant response rating, Surinam Grass [5, 19]: 15 | Plant response rating, Oat, Wild (wild oat (Avena fatua); [12]): 0 | Oat, Wild plant response rating (0 to 100 scale) (wild oat (Avena fatua); [13]): 5 | Plant response rating, Oat, Wild (wild oat (Avena fatua); [15]): 10 | Plant response rating, Oat, Wild (wild oat (Avena fatua); [16]): 10 | Plant response rating, Oat, Wild (wild oat (Avena fatua); [17]): 0 | Plant response rating, Oat, Wild (wild oat (Avena fatua); [18]): 0 | Plant response rating, Oat, Wild (wild oat (Avena fatua); [19]): 0 | Plant response rating, Ragweed [6, 12]: 75 | Ragweed plant response rating (0 to 100 scale) [6, 13]: 80 | Plant response rating, Ragweed [6, 15]: 85 | Plant response rating, Ragweed [6, 16]: 90 | Plant response rating, Ragweed [6, 17]: 25 | Plant response rating, Ragweed [6, 18]: 25 | Plant response rating, Ragweed [6, 19]: 35 | Plant response rating, Crabgrass, Large [7, 12]: 75 | Crabgrass, Large plant response rating (0 to 100 scale) [7, 13]: 80 | Plant response rating, Crabgrass, Large [7, 14]: 100 | Plant response rating, Crabgrass, Large [7, 15]: 90 | Plant response rating, Crabgrass, Large [7, 16]: 95 | Plant response rating, Crabgrass, Large [7, 17]: 40 | Plant response rating, Crabgrass, Large [7, 18]: 65 | Plant response rating, Crabgrass, Large [7, 19]: 98 | Plant response rating, Morningglory [8, 12]: 80 | Morningglory plant response rating (0 to 100 scale) [8, 13]: 90 | Plant response rating, Morningglory [8, 15]: 95 | Plant response rating, Morningglory [8, 16]: 100 | Plant response rating, Morningglory [8, 17]: 0 | Plant response rating, Morningglory [8, 18]: 15 | Plant response rating, Morningglory [8, 19]: 15 | Plant response rating, Cocklebur [9, 12]: 75 | Cocklebur plant response rating (0 to 100 scale) [9, 13]: 75 | Plant response rating, Cocklebur [9, 14]: 20 | Plant response rating, Cocklebur [9, 15]: 90 | Plant response rating, Cocklebur [9, 16]: 90 | Plant response rating, Cocklebur [9, 17]: 0 | Plant response rating, Cocklebur [9, 18]: 0 | Plant response rating, Cocklebur [9, 19]: 15 | Plant response rating, Bromegrass, Downy [10, 12]: 0 | Bromegrass, Downy plant response rating (0 to 100 scale) [10, 13]: 0 | Plant response rating, Bromegrass, Downy [10, 14]: 0 | Plant response rating, Bromegrass, Downy [10, 15]: 0 | Plant response rating, Bromegrass, Downy [10, 16]: 5 | Plant response rating, Bromegrass, Downy [10, 17]: 0 | Plant response rating, Bromegrass, Downy [10, 18]: 0 | Plant response rating, Bromegrass, Downy [10, 19]: 0 | Plant response rating, Wheat [11, 12]: 5 | Wheat plant response rating (0 to 100 scale) [11, 13]: 5 | Plant response rating, Wheat [11, 15]: 25 | Plant response rating, Wheat [11, 16]: 25 | Plant response rating, Wheat [11, 17]: 0 | Plant response rating, Wheat [11, 18]: 0 | Plant response rating, Wheat [11, 19]: 0

Cc1ccc(-c2ncc(C(=O)C3=C(O)CCCC3=O)c(=O)n2-c2ccccc2)cc1 [Compound 80]
Plant response rating, Bermudagrass [1, 12]: 20 | Bermudagrass plant response rating (0 to 100 scale) [1, 13]: 40 | Plant response rating, Bermudagrass [1, 15]: 45 | Plant response rating, Bermudagrass [1, 16]: 55 | Plant response rating, Blackgrass [2, 12]: 0 | Blackgrass plant response rating (0 to 100 scale) [2, 13]: 0 | Plant response rating, Blackgrass [2, 15]: 5 | Plant response rating, Blackgrass [2, 16]: 10 | Plant response rating, Ryegrass, Italian [3, 12]: 0 | Ryegrass, Italian plant response rating (0 to 100 scale) [3, 13]: 0 | Plant response rating, Ryegrass, Italian [3, 15]: 5 | Plant response rating, Ryegrass, Italian [3, 16]: 5 | Plant response rating, Cupgrass, Woolly [4, 12]: 65 | Cupgrass, Woolly plant response rating (0 to 100 scale) [4, 13]: 70 | Plant response rating, Cupgrass, Woolly [4, 15]: 70 | Plant response rating, Cupgrass, Woolly [4, 16]: 75 | Plant response rating, Kochia (kochia (Kochia scoparia); [12]): 0 | Kochia plant response rating (0 to 100 scale) (kochia (Kochia scoparia); [13]): 20 | Plant response rating, Kochia (kochia (Kochia scoparia); [15]): 20 | Plant response rating, Kochia (kochia (Kochia scoparia); [16]): 60 | Plant response rating, Surinam Grass [5, 12]: 45 | Surinam Grass plant response rating (0 to 100 scale) [5, 13]: 45 | Plant response rating, Surinam Grass [5, 15]: 60 | Plant response rating, Surinam Grass [5, 16]: 65 | Plant response rating, Oat, Wild (wild oat (Avena fatua); [12]): 20 | Oat, Wild plant response rating (0 to 100 scale) (wild oat (Avena fatua); [13]): 30 | Plant response rating, Oat, Wild (wild oat (Avena fatua); [15]): 40 | Plant response rating, Oat, Wild (wild oat (Avena fatua); [16]): 50 | Plant response rating, Ragweed [6, 12]: 50 | Ragweed plant response rating (0 to 100 scale) [6, 13]: 60 | Plant response rating, Ragweed [6, 15]: 65 | Plant response rating, Ragweed [6, 16]: 75 | Plant response rating, Crabgrass, Large [7, 12]: 75 | Crabgrass, Large plant response rating (0 to 100 scale) [7, 13]: 80 | Plant response rating, Crabgrass, Large [7, 15]: 90 | Plant response rating, Crabgrass, Large [7, 16]: 95 | Plant response rating, Morningglory [8, 12]: 85 | Morningglory plant response rating (0 to 100 scale) [8, 13]: 100 | Plant response rating, Morningglory [8, 15]: 100 | Plant response rating, Morningglory [8, 16]: 100 | Plant response rating, Cocklebur [9, 12]: 0 | Cocklebur plant response rating (0 to 100 scale) [9, 13]: 10 | Plant response rating, Cocklebur [9, 15]: 45 | Plant response rating, Cocklebur [9, 16]: 65 | Plant response rating, Bromegrass, Downy [10, 12]: 45 | Bromegrass, Downy plant response rating (0 to 100 scale) [10, 13]: 60 | Plant response rating, Bromegrass, Downy [10, 15]: 60 | Plant response rating, Bromegrass, Downy [10, 16]: 80 | Plant response rating, Wheat [11, 12]: 5 | Wheat plant response rating (0 to 100 scale) [11, 13]: 10 | Plant response rating, Wheat [11, 15]: 20 | Plant response rating, Wheat [11, 16]: 35

Reference: US8952024B2, “Herbicidal pyrimidone derivatives” (E I du Pont de Nemours and Company, priority 2009, dated 2015)
